In general, IC50 refers to the midpoint of a concentration-inhibition curve. Low readings indicate greater potency, high ones weaker potency.

Bounds are passed on as bounds.

For this test, the system named is Endogenous Huntingtin Protein (capture with MW1 (expanded polyglutamine) or MAB2166 antibody). The test can be described thus: Endogenous Huntingtin Protein Assay (ELISA-based Meso Scale Discovery electrochemiluminescence assay). Format: cell-based. As to conditions: MSD electrochemiluminescence platform. In a few lines: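 MSD electrochemiluminescence sandwich immunoassay: plates coated with 1 μg/mL MW1 or MAB2166 capture antibody, samples incubated overnight at 4 °C. Detection with rabbit monoclonal #5656S then SULFO-TAG anti-rabbit (each 0.25 μg/mL, 1 h RT).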
Background: ELISA stands for enzyme-linked immunosorbent assay.
In turn, `CC1CN(c2ccc(-c3ncc(NCc4cnc5ccccc5c4)cc3O)nn2)CCN1` (stereo not drawn) [Compound 112, 2-[6-(3-methylpiperazin-1-yl)pyridazin-3-yl]-5-{[(quinolin-3-yl)methyl]amino}pyridin-3-ol] came in with an IC50 of 500 to 1000 nM.

For `CC1CN(c2ccc(-c3ncc(NCc4cccc5cccnc45)cc3O)nn2)CCN1` (stereo not drawn) [Compound 113, 2-[6-(3-methylpiperazin-1-yl)pyridazin-3-yl]-5-{[(quinolin-8-yl)methyl]amino}pyridin-3-ol], the IC50 lay within 500 to 1000 nM.

For `CC1(C)CC(Oc2ccc(-c3ncc(-c4cn[nH]c4)cc3O)nn2)CC2(COC2)N1` (stereo not drawn) [Compound 114, 2-{6-[(6,6-dimethyl-2-oxa-5-azaspiro[3.5]nonan-8-yl)oxy]pyridazin-3-yl}-5-(1H-pyrazol-4-yl)pyridin-3-ol], the concentration for half-maximal inhibition (IC50) was ≤ 100 nM.

The compound `Cc1cn2cc(-c3cnc(-c4ccc(N5C[C@@H](C)N[C@@H](C)C5)nn4)c(O)c3)cnc2n1` [Compound 115, 2-{6-[(3R,5S)-3,5-dimethylpiperazin-1-yl]pyridazin-3-yl}-5-(2-methylimidazo[1,2-a]pyrimidin-6-yl)pyridin-3-ol and 2-{6-[(3S,5R)-3,5-dimethylpiperazin-1-yl]pyridazin-3-yl}-5-(2-methylimidazo[1,2-a]pyrimidin-6-yl)pyridin-3-ol] displayed an IC50 of 100 to 500 nM.

As for `Cc1cn2cc(-c3cnc(-c4ccc(N5CC6CC5CN6)nn4)c(O)c3)cnc2n1` (stereo not drawn) [Compound 116, 2-[6-(2,5-diazabicyclo[2.2.1]heptan-2-yl)pyridazin-3-yl]-5-(2-methylimidazo[1,2-a]pyrimidin-6-yl)pyridin-3-ol], the IC50 was 500 to 1000 nM.

As for `CC1CN(c2ccc(-c3ncc(Nc4cccnc4)cc3O)nn2)CCN1` (stereo not drawn) [Compound 117, 2-[6-(3-methylpiperazin-1-yl)pyridazin-3-yl]-5-[(pyridin-3-yl)amino]pyridin-3-ol], the IC50 fell in the range of 500 to 1000 nM.

Consider `C[C@@H]1CN(c2ccc(-c3ncc(/C=C/c4cnn(C)c4)cc3O)nn2)C[C@H](C)N1` [Compound 118, 2-{6-[(3R,5S)-3,5-dimethylpiperazin-1-yl]pyridazin-3-yl}-5-[(E)-2-(1-methyl-1H-pyrazol-4-yl)ethenyl]pyridin-3-ol and 2-{6-[(3S,5R)-3,5-dimethylpiperazin-1-yl]pyridazin-3-yl}-5-[(E)-2-(1-methyl-1H-pyrazol-4-yl)ethenyl]pyridin-3-ol], for which the IC50 is ≤ 100 nM.

In the case of `CCC1CN(c2ccc(-c3ncc(-c4cn[nH]c4)cc3O)nn2)CCN1` (stereo not drawn) [Compound 119, 2-[6-(3-ethylpiperazin-1-yl)pyridazin-3-yl]-5-(1H-pyrazol-4-yl)pyridin-3-ol], the IC50 is ≤ 100 nM.

For the compound `CCC1CN(c2ccc(-c3ncc(-c4cc(F)c5nn(C)cc5c4)cc3O)nn2)CCN1` (stereo not drawn) [Compound 120, 2-[6-(3-ethylpiperazin-1-yl)pyridazin-3-yl]-5-(7-fluoro-2-methyl-2H-indazol-5-yl)pyridin-3-ol], the IC50 was ≤ 100 nM.

On to `CC(C)[C@H]1CN(c2ccc(-c3ncc(-c4cc(F)c5nn(C)cc5c4)cc3O)nn2)CCN1` [Compound 122, 5-(7-fluoro-2-methyl-2H-indazol-5-yl)-2-{6-[(3S)-3-(propan-2-yl)piperazin-1-yl]pyridazin-3-yl}pyridin-3-ol], for which the IC50 is ≤ 100 nM.

Consider `Oc1cc(-c2cn[nH]c2)cnc1-c1ccc(N2CCNC(C3CC3)C2)nn1` (stereo not drawn) [Compound 123, 2-[6-(3-cyclopropylpiperazin-1-yl)pyridazin-3-yl]-5-(1H-pyrazol-4-yl)pyridin-3-ol], for which the IC50 was ≤ 100 nM.

For the compound `C[C@@H]1CN(c2ccc(-c3ncc(-c4ccc5nn(C)cc5c4)cc3O)nn2)C[C@H](C)N1` [Compound 124, 2-{6-[(3R,5S)-3,5-dimethylpiperazin-1-yl]pyridazin-3-yl}-5-(2-methyl-2H-indazol-5-yl)pyridin-3-ol and 2-{6-[(3S,5R)-3,5-dimethylpiperazin-1-yl]pyridazin-3-yl}-5-(2-methyl-2H-indazol-5-yl)pyridin-3-ol], the IC50 is ≤ 100 nM.

`Cc1ccc(Nc2cnc(-c3ccc(N4C[C@@H](C)N[C@@H](C)C4)nn3)c(O)c2)cn1` [Compound 125, 2-{6-[(3R,5S)-3,5-dimethylpiperazin-1-yl]pyridazin-3-yl}-5-[(6-methylpyridin-3-yl)amino]pyridin-3-ol] came in with a 50% inhibitory concentration (IC50) of 100 to 500 nM.

The compound `C[C@@H]1CN(c2ccc(-c3ncc(-c4ccc5c(cnn5C)c4)cc3O)nn2)C[C@H](C)N1` [Compound 126, 2-{6-[(3R,5S)-3,5-dimethylpiperazin-1-yl]pyridazin-3-yl}-5-(1-methyl-1H-indazol-5-yl)pyridin-3-ol and 2-{6-[(3S,5R)-3,5-dimethylpiperazin-1-yl]pyridazin-3-yl}-5-(1-methyl-1H-indazol-5-yl)pyridin-3-ol] displayed an IC50 of 100 to 500 nM.

Consider `Oc1cc(-n2nccn2)cnc1-c1ccc(N2CCN[C@@H](C3CC3)C2)nn1` [Compound 128, 2-{6-[(3S)-3-cyclopropylpiperazin-1-yl]pyridazin-3-yl}-5-(2H-1,2,3-triazol-2-yl)pyridin-3-ol], for which the IC50 is ≤ 100 nM.

Take `[2H]C([2H])([2H])n1cc(-c2cnc(-c3ccc(N4CCN[C@@H](C5CC5)C4)nn3)c(O)c2)cn1` [Compound 129, 2-{6-[(3S)-3-cyclopropylpiperazin-1-yl]pyridazin-3-yl}-5-[1-(^2H3)methyl-1H-pyrazol-4-yl]pyridin-3-ol]: the concentration for half-maximal inhibition (IC50) was ≤ 100 nM.

For the compound `CC(C)C1CN(c2ccc(-c3ncc(/C=C/c4cn[nH]c4)cc3O)nn2)CCN1` (stereo not drawn) [Compound 130, 2-{6-[3-(propan-2-yl)piperazin-1-yl]pyridazin-3-yl}-5-[(E)-2-(1H-pyrazol-4-yl)ethenyl]pyridin-3-ol], the half-maximal inhibitory concentration (IC50) lay in the range of 500 to 1000 nM.

In turn, `C[C@@H]1CN(c2ccc(-c3ncc(-c4ccc5n[nH]cc5c4)cc3O)nn2)C[C@H](C)N1` [Compound 131, 2-{6-[(3R,5S)-3,5-dimethylpiperazin-1-yl]pyridazin-3-yl}-5-(2H-indazol-5-yl)pyridin-3-ol and 2-{6-[(3S,5R)-3,5-dimethylpiperazin-1-yl]pyridazin-3-yl}-5-(2H-indazol-5-yl)pyridin-3-ol] had an IC50 of 500 to 1000 nM.

In the case of `CC[C@H]1CN(c2ccc(-c3ncc(-c4cn[nH]c4)cc3O)nn2)CCN1` [Compound 132, 2-{6-[(3S)-3-ethylpiperazin-1-yl]pyridazin-3-yl}-5-(1H-pyrazol-4-yl)pyridin-3-ol], the 50% inhibitory concentration (IC50) was ≤ 100 nM.

Take `CN(c1ncc(-c2ncc(-c3cn[nH]c3)cc2O)nn1)C1CC(C)(C)NC(C)(C)C1` [Compound 135, 2-{3-[methyl(2,2,6,6-tetramethylpiperidin-4-yl)amino]-1,2,4-triazin-6-yl}-5-(1H-pyrazol-4-yl)pyridin-3-ol]: the 50% inhibitory concentration (IC50) was ≤ 100 nM.

For `CC(C)(C)NC1CCN(c2ncc(-c3ncc(-c4cn[nH]c4)cc3O)nn2)C1` (stereo not drawn) [Compound 136, 2-{3-[3-(tert-butylamino)pyrrolidin-1-yl]-1,2,4-triazin-6-yl}-5-(1H-pyrazol-4-yl)pyridin-3-ol], the 50% inhibitory concentration (IC50) was ≤ 100 nM.

`[2H]C([2H])([2H])n1cc(-c2cnc(-c3cnc(N4CCC(NC(C)(C)C)C4)nn3)c(O)c2)cn1` (stereo not drawn) [Compound 137, 2-{3-[3-(tert-butylamino)pyrrolidin-1-yl]-1,2,4-triazin-6-yl}-5-[1-(^2H3)methyl-1H-pyrazol-4-yl]pyridin-3-ol]: the IC50 was ≤ 100 nM.

For the compound `CC(C)(C)NC1CCN(c2ncc(-c3ncc(-n4nccn4)cc3O)nn2)C1` (stereo not drawn) [Compound 138, 2-{3-[3-(tert-butylamino)pyrrolidin-1-yl]-1,2,4-triazin-6-yl}-5-(2H-1,2,3-triazol-2-yl)pyridin-3-ol], the half-inhibitory concentration (IC50) was ≤ 100 nM.

The compound `CC1(C)CC(Oc2ncc(-c3ncc(-c4cn[nH]c4)cc3O)nn2)CC(C)(C)N1` [Compound 141, 5-(1H-pyrazol-4-yl)-2-{3-[(2,2,6,6-tetramethylpiperidin-4-yl)oxy]-1,2,4-triazin-6-yl}pyridin-3-ol] had a half-maximal inhibitory concentration (IC50) of 500 to 1000 nM.

Take `[2H]C([2H])([2H])n1cc(-c2cnc(-c3cnc(N(C)C4CC(C)(C)NC(C)(C)C4)nn3)c(O)c2)cn1` [Compound 142, 5-[1-(^2H3)methyl-1H-pyrazol-4-yl]-2-{3-[methyl(2,2,6,6-tetramethylpiperidin-4-yl)amino]-1,2,4-triazin-6-yl}pyridin-3-ol]: the 50% inhibitory concentration (IC50) is ≤ 100 nM.

`CN(c1ncc(-c2ncc(-c3cn[nH]c3F)cc2O)nn1)C1CC(C)(C)NC(C)(C)C1` [Compound 143, 5-(5-fluoro-1H-pyrazol-4-yl)-2-{3-[methyl(2,2,6,6-tetramethylpiperidin-4-yl)amino]-1,2,4-triazin-6-yl}pyridin-3-ol] returned an IC50 of 100 to 500 nM.

Regarding `CN(c1ncc(-c2ncc(-n3nccn3)cc2O)nn1)C1CC(C)(C)NC(C)(C)C1` [Compound 144, 2-{3-[methyl(2,2,6,6-tetramethylpiperidin-4-yl)amino]-1,2,4-triazin-6-yl}-5-(2H-1,2,3-triazol-2-yl)pyridin-3-ol], the IC50 is ≤ 100 nM.

As to `CC(C)(C)N[C@H]1CCN(c2ncc(-c3ncc(-c4c[nH]nc4F)cc3O)nn2)C1` [Compound 145, 2-{3-[(3S)-3-(tert-butylamino)pyrrolidin-1-yl]-1,2,4-triazin-6-yl}-5-(3-fluoro-1H-pyrazol-4-yl)pyridin-3-ol], the IC50 is ≤ 100 nM.

With `COc1cc(-c2cnc(-c3cnc(N4CC[C@@H](NC(C)(C)C)C4)nn3)c(O)c2)cc2cn(C)nc12` [Compound 146, 2-{3-[(3R)-3-(tert-butylamino)pyrrolidin-1-yl]-1,2,4-triazin-6-yl}-5-(7-methoxy-2-methyl-2H-indazol-5-yl)pyridin-3-ol], the IC50 is ≤ 100 nM.

On to `Cc1cn2cc(-c3cnc(-c4cnc(N5CC[C@@H](NC(C)(C)C)C5)nn4)c(O)c3)cc(C#N)c2n1` [Compound 147, 6-(6-{3-[(3R)-3-(tert-butylamino)pyrrolidin-1-yl]-1,2,4-triazin-6-yl}-5-hydroxypyridin-3-yl)-2-methylimidazo[1,2-a]pyridine-8-carbonitrile], for which the IC50 lay within 100 to 500 nM.

(Values after patent publication US12577226B2, “Compounds for treating Huntington's disease” (PTC THERAPEUTICS, INC., priority 2019, dated 2026).)
